The results in this text go back to ChEMBL document CHEMBL2216754, “Discovery of Imidazoquinolines with Toll-Like Receptor 7/8 Independent Cytokine Induction” (ACS Med Chem Lett, 2012).

The EC50 is the concentration giving half of the maximal effect.

Assay [1] can be described thus: Immunomodulatory activity in C57BL/6 mouse BMDC assessed as TNFalpha production at 30 uM after 3 days by FACS flow cytometric analysis (reference value: 91.3 +/- 34.5 pg/mL). It counts as functional. Background: A flow cytometer gives signals particle by particle.
Assay [2] in a line: Immunomodulatory activity in C57BL/6 mouse BMDC assessed as IL-1beta production at 30 uM after 3 days by FACS flow cytometric analysis (reference value: 26.2 +/- 3.7 pg/mL). It is filed as functional.
A short description of assay [3]: Immunomodulatory activity in C57BL/6 mouse BMDC assessed as IL-12p40 production at 30 uM after 3 days by FACS flow cytometric analysis (reference value: 260.6 +/- 11.9 pg/mL). It counts as functional.
Assay [4] is described as follows: Immunomodulatory activity in C57BL/6 mouse BMDC assessed as IL-10 production at 30 uM after 3 days by FACS flow cytometric analysis (reference value: 16.2 +/- 4.7 pg/mL). It is filed as functional.
In assay [5] the target is T1, Toll-like receptor 7 (Homo sapiens, UniProt Q9NYK1).
T1 sequence (Q9NYK1 whole entry): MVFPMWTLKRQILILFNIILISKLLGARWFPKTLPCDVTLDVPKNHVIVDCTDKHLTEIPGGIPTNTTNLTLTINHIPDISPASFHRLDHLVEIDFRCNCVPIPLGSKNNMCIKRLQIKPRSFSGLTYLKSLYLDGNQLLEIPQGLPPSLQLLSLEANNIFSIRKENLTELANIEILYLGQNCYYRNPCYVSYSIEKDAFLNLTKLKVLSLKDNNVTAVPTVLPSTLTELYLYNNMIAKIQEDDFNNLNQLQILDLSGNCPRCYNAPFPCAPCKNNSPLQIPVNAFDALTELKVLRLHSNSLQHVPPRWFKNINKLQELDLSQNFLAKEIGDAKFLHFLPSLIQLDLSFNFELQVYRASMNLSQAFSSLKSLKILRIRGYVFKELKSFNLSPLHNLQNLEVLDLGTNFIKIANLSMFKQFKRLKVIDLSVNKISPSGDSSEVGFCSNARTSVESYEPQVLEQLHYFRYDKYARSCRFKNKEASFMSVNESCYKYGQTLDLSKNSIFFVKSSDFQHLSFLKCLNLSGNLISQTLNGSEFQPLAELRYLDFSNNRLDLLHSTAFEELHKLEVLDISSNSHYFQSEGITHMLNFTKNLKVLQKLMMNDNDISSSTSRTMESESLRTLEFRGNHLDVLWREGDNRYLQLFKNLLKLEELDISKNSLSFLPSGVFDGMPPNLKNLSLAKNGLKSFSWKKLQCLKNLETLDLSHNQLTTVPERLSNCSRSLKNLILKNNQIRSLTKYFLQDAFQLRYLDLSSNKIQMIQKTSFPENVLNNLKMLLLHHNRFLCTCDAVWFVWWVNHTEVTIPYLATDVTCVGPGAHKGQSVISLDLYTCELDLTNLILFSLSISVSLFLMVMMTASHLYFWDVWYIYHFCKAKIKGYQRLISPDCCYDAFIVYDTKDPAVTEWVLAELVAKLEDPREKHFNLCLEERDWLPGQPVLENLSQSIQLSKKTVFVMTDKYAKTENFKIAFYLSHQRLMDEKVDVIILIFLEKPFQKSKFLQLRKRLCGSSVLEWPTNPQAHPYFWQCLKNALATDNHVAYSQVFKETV
Nature of the assay: Agonist activity at human TLR7 transfected in HEK cells assessed as NFkappaB induction after 24 hrs by specific secreted alkaline phosphatase gene assay. It counts as functional, cell-based, HEK293.

For assay [6], the target named is T2, Toll-like receptor 8 (Homo sapiens, UniProt Q9NR97).
T2 sequence (Q9NR97 whole entry): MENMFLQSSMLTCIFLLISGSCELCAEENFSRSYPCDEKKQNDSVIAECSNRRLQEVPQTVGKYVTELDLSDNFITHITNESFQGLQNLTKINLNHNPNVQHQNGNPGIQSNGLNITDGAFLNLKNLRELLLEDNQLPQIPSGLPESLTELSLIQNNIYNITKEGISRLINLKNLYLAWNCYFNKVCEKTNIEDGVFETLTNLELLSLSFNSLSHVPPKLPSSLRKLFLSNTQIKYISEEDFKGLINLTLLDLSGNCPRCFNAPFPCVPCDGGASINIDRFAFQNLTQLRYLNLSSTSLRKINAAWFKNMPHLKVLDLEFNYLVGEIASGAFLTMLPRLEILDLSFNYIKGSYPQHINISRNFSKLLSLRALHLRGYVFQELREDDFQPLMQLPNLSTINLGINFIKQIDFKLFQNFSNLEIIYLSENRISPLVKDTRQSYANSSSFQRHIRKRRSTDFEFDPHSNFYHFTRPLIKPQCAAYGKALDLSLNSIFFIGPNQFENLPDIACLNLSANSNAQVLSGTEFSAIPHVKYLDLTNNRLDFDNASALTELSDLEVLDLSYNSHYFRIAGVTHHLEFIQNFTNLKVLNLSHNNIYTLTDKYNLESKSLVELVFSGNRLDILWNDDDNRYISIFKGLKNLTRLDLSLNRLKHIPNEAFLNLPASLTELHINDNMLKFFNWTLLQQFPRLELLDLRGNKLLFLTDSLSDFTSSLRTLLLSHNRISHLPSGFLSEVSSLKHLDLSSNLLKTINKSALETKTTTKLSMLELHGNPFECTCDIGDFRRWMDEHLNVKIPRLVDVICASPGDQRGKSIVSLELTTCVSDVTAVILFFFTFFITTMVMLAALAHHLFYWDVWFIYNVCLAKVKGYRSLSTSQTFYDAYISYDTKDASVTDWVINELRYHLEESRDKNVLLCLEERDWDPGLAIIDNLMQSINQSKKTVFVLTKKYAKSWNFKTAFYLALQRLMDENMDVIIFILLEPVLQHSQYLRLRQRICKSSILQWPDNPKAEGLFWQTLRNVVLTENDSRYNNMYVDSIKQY
Briefly: Agonist activity at human TLR8 transfected in HEK cells assessed as NFkappaB induction after 24 hrs by specific secreted alkaline phosphatase gene assay. It counts as functional, cell-based, HEK293.

The nature of assay [7]: Immunomodulatory activity in C57BL/6 mouse BMDC assessed as TNFalpha production at 30 uM after 3 days by FACS flow cytometric analysis relative to imiquimod. It is filed as functional.
Assay [8] in a line: Immunomodulatory activity in C57BL/6 mouse BMDC assessed as IL-12p40 production at 30 uM after 3 days by FACS flow cytometric analysis relative to imiquimod. It counts as functional.

The structures appear in SMILES notation.

As for `CCCCc1nc2c(N)nc3cc(C(=O)OC)ccc3c2n1CC(C)(C)O`, the Activity was determined as 1353 pg/mL in assay [1], 893 pg/mL in assay [2], 1286 pg/mL in assay [3] and 110 pg/mL in assay [4]. For the same molecule, the EC50 in assay [5] came out at 1.2 µM; in assay [6], 41.3 µM.

As for `CC(C)Cn1cnc2c(N)nc3ccccc3c21` [IMIQUIMOD], the Activity in assay [1] was 593 pg/mL; in assay [2] it was 35 pg/mL; in assay [3], 889 pg/mL; in assay [4], 33 pg/mL. The EC50 in assay [5] was 12.1 µM; in assay [6], above 270 µM.

With `CCOCc1nc2c(N)nc3ccccc3c2n1CC(C)(C)O` [RESIQUIMOD], the Activity in assay [1] is 2134 pg/mL; in assay [2], 38 pg/mL; in assay [3], 1491 pg/mL; in assay [4], 72 pg/mL.

On to `COC(=O)c1ccc2c(c1)nc(N)c1ncn(CC(C)(C)O)c12`, for which the Activity in assay [1] came to 1451 pg/mL; in assay [2], 1144 pg/mL; in assay [3], 1773 pg/mL; in assay [4] it was 94 pg/mL. Further, the EC50 in assay [5] and in assay [6] was above 270 µM throughout. For the same molecule, the “fold change (FC)” value in assay [7] and in assay [8] was above 2 each time.

Turning to `CC(C)(O)Cn1cnc2c(N)nc3ccccc3c21`, the Activity in assay [1] stood at 2041 pg/mL; in assay [2], 61 pg/mL; in assay [3], 839 pg/mL; in assay [4], 60 pg/mL. Besides, the values for the EC50 in assay [5] and in assay [6] were 95 µM and above 270 µM, respectively.

On to `CCCCc1nc2c(N)nc3ccccc3c2n1CC(C)(C)O`, for which the Activity in assay [1] is 1743 pg/mL; in assay [2] it was 73 pg/mL; in assay [3], 864 pg/mL; in assay [4], 181 pg/mL.
